# Results reported in US20240269139A1, “COMPOUNDS FOR TARGETED PROTEIN DEGRADATION OF KINASES” (DANA-FARBER CANCER INSTITUTE, INC., priority 2020, published 2024).
# “And” between values parts separate entries of the source, which are not always exact repeats. Identical values can stand only once. Like-named read-outs stand apart in the source and are kept apart here.
# Key:
# Assay type in all cases: cell-based
# [1] = molecular target: protein kinases (human kinome) (Homo sapiens, UniProt Q07912); details: for logFC TNK2 (Q07912-1): direction down; for logFC TNK2: TNK2 (Q07912-1)
# [2] = molecular target: protein kinases (human kinome) (Homo sapiens, UniProt Q9HBH9)
# [3] = molecular target: protein kinases (human kinome) (Homo sapiens, UniProt P50613); details: for logFC: CDK7 (P50613) protein abundance, degrader vs DMSO, down; for logFC CDK7: CDK7 P50613
# [4] = molecular target: T1, protein kinases (human kinome) (Homo sapiens, UniProt P33981); details: experiment wp146
# T1 sequence (P33981 1-857): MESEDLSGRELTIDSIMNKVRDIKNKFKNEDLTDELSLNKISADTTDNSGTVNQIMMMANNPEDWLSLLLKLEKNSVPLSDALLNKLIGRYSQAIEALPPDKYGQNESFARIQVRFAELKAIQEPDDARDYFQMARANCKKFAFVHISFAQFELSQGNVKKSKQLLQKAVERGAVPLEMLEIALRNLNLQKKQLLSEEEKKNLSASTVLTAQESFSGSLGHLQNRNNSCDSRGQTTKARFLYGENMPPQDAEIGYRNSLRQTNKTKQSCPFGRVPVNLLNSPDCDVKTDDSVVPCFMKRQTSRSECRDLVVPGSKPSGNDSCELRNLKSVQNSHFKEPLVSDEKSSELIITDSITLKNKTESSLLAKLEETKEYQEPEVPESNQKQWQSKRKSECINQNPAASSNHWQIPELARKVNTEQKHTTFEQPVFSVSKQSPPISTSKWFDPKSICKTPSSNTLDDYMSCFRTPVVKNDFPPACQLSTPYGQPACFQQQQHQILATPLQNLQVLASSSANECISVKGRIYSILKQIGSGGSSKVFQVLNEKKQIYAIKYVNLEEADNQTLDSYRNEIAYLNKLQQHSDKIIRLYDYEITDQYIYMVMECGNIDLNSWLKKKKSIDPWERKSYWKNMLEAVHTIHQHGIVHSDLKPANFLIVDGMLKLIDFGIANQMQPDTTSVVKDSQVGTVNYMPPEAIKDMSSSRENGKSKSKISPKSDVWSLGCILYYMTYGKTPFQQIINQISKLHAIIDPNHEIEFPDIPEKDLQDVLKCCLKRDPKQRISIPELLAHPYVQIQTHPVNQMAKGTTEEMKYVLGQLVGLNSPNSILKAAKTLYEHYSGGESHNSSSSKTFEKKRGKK
# [5] = molecular target: protein kinases (human kinome) (Homo sapiens, UniProt Q14289); details: for logFC: PTK2B (Q14289-1) protein abundance, degrader vs DMSO, down; for logFC PTK2B: accession Q14289-1, direction of change down
# [6] = molecular target: protein kinases (human kinome) (Homo sapiens, UniProt Q9NYV4)
# [7] = molecular target: T2, protein kinases (human kinome) (Homo sapiens, UniProt Q9UEE5); details: STK17A Q9UEE5; experiment wp137
# T2 sequence (Q9UEE5 1-414): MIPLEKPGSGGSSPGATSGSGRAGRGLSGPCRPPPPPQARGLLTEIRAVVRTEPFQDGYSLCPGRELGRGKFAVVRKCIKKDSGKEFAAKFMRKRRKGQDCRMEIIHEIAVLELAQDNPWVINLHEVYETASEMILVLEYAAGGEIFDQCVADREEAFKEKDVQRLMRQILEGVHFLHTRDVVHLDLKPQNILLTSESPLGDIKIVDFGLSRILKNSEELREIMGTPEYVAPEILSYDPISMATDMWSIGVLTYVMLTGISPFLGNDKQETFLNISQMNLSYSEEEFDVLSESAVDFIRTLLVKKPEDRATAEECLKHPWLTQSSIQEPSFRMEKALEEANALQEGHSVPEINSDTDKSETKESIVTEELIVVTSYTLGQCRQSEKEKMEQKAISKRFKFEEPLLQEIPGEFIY
# [8] = Accession Q9NYV4-1, experiment wp131
# [9] = CDK12 (Q9NYV4-1), experiment wp131
# Sequence of protein kinases (human kinome) (Homo sapiens, UniProt Q14289) (Q14289 whole entry): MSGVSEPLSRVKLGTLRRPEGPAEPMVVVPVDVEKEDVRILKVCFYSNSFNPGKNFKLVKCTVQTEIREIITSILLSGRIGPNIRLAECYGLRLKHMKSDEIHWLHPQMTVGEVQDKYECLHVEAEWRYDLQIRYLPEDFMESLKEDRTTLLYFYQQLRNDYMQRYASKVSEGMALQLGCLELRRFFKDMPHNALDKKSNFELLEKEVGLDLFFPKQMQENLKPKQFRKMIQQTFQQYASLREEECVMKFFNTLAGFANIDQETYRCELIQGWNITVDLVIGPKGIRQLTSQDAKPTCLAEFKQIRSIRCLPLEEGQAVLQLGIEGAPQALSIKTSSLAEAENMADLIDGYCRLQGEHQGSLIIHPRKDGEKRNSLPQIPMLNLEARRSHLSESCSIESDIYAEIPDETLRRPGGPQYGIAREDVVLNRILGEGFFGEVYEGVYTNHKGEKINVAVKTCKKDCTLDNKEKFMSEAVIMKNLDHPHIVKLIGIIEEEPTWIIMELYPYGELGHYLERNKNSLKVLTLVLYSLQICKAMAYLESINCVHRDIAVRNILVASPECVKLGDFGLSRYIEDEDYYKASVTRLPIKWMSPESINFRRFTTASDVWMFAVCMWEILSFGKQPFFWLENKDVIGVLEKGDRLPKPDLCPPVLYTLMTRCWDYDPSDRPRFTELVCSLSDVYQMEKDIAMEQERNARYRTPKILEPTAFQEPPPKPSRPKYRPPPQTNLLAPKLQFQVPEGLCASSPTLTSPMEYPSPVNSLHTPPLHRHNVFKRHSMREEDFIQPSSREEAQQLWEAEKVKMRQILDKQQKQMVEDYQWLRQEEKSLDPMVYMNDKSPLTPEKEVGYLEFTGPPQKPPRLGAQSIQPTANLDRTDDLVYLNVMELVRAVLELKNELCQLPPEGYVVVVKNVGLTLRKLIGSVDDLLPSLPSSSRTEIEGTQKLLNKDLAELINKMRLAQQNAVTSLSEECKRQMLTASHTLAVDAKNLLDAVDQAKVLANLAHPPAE
# Sequence of protein kinases (human kinome) (Homo sapiens, UniProt Q9NYV4) (Q9NYV4 whole entry): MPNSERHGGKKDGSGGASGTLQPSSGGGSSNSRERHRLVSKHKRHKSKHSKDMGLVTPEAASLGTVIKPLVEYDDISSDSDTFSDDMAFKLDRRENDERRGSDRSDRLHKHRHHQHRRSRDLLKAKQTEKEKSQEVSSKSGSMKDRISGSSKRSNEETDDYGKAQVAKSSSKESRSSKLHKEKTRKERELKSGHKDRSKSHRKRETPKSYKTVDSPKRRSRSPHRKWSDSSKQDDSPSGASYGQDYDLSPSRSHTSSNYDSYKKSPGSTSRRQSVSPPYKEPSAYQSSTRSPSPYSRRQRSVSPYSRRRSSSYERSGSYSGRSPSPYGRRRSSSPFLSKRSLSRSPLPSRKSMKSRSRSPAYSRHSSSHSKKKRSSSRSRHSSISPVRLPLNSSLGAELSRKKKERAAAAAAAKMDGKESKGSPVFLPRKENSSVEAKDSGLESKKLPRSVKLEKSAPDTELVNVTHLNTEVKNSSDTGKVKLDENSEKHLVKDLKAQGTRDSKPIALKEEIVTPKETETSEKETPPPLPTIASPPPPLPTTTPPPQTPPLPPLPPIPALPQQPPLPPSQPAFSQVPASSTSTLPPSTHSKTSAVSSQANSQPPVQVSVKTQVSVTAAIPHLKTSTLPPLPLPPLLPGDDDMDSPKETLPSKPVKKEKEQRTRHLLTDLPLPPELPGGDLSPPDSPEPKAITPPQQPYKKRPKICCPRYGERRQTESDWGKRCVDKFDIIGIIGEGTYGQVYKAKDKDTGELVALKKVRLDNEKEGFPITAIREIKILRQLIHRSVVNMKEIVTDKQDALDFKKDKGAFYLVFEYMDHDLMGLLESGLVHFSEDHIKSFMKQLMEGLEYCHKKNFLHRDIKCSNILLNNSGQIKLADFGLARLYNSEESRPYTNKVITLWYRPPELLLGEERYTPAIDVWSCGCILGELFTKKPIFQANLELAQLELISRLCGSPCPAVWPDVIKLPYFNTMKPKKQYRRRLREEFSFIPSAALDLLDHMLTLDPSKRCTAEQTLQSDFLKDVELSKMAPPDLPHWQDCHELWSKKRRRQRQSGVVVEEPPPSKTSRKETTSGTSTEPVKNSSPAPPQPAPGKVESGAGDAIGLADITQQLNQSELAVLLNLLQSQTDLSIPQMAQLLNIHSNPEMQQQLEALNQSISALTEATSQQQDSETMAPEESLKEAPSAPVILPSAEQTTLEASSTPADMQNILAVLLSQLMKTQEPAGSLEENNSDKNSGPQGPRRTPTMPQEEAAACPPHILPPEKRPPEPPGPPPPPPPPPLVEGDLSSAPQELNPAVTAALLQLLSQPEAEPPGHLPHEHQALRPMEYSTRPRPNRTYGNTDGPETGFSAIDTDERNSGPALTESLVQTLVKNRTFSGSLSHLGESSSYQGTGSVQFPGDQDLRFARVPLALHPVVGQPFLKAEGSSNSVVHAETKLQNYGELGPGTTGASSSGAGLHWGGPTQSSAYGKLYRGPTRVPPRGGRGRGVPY
# Sequence of protein kinases (human kinome) (Homo sapiens, UniProt Q07912) (Q07912 whole entry): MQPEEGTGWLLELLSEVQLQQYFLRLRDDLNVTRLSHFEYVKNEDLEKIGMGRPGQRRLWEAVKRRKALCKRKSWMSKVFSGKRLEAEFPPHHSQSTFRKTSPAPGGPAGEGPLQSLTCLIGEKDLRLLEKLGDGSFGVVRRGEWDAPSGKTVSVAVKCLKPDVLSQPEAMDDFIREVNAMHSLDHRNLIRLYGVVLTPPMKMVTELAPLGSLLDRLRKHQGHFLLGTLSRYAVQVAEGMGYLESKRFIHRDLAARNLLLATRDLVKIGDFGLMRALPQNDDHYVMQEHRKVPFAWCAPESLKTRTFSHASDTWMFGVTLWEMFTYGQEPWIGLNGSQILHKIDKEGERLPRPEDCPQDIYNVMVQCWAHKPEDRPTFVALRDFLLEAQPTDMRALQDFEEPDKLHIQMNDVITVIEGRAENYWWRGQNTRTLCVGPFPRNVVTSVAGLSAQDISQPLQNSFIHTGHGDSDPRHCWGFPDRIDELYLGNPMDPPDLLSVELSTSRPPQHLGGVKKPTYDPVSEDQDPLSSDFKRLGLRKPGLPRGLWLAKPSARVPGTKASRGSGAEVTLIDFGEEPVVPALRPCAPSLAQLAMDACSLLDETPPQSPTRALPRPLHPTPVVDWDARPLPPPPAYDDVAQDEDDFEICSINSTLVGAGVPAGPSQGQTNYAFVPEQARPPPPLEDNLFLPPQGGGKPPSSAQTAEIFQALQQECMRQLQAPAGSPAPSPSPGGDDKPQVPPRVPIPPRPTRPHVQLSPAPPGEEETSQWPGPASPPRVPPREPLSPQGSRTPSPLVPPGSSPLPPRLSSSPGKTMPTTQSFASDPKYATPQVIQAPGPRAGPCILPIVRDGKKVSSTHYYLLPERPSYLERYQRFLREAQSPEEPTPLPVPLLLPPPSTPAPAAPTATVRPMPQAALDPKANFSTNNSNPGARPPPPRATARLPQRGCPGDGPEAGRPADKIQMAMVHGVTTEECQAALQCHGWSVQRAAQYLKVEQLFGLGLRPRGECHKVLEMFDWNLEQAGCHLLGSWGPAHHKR
# Sequence of protein kinases (human kinome) (Homo sapiens, UniProt P50613) (P50613 whole entry): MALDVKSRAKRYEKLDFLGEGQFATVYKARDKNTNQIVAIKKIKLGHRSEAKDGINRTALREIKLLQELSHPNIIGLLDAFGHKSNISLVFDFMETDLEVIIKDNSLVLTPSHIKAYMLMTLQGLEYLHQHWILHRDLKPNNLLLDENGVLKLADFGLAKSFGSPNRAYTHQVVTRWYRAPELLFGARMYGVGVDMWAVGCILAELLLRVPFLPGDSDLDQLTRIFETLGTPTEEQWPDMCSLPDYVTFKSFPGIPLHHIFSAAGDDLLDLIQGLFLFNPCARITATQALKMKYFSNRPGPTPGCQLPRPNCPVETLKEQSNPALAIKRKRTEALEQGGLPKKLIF
# Sequence of protein kinases (human kinome) (Homo sapiens, UniProt Q9HBH9) (Q9HBH9 whole entry): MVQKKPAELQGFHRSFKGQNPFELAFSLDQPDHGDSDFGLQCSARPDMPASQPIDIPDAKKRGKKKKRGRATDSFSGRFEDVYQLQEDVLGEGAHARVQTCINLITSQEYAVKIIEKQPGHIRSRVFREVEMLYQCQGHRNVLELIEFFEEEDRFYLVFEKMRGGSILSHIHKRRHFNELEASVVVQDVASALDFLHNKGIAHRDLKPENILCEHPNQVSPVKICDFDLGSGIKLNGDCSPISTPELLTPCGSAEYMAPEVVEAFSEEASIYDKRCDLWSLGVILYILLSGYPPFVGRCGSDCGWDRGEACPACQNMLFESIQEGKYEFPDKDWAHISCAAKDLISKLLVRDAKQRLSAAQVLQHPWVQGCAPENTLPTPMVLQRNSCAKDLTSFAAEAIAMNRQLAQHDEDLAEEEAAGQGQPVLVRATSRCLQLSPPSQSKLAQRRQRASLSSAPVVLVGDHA
structure (smiles),measurement,setting,value
Cc1ccc(NC(=O)c2cccc(C(F)(F)F)c2)cc1N1Cc2cnc(Nc3ccc(N4CCN(CCCOc5cccc6c5C(=O)N(C5CCC(=O)NC5=O)C6=O)CC4)nc3)nc2N(C)C1=O (stereo not shown) [DB0662],logFC TNK2 (Q07912-1),[1]; Experiment wp168,−0.6943
same,logFC TNK2,[1]; experiment wp168,−0.6943
same,logFC MKNK2 (Q9HBH9-1),"[2]; Experiment wp168, direction down",−0.4185
same,logFC,"[2]; MKNK2 (Q9HBH9-1), experiment wp168",−0.4185
CC(C)S(=O)(=O)c1ccccc1Nc1nc(Nc2ccc(N3CCN(CCOCCOCCC(=O)NCCNc4cccc5c4CN(C4CCC(=O)NC4=O)C5=O)CC3)cc2)ncc1Cl (stereo not shown) [TL13.97],logFC,[3],−1.05
same,logFC CDK7,[3]; experiment wp137,−1.05
same,logFC TNK2 (Q07912-1),[1]; Experiment wp137,−1.971
same,logFC TNK2,[1]; experiment wp137,−1.971
NC(=O)c1c(F)cccc1Nc1nc(Nc2ccc(S(=O)(=O)NCCOCCOCCOCCOCCNc3cccc4c3C(=O)N(C3CCC(=O)NC3=O)C4=O)cc2)ncc1Br (stereo not shown) [TMX.02.138],logFC TTK,[4]; Accession P33981,−0.6178
same,logFC TTK (P33981),[4],−0.6178
same,logFC,[3],−0.5239
same,logFC CDK7,[3]; experiment wp146,−0.5239
same,logFC,[5],−1.24
same,logFC PTK2B,[5]; experiment wp146,−1.24
same,logFC CDK12,"[6]; Accession Q9NYV4-1, experiment wp146",−1.018
same,logFC CDK12,"[6]; CDK12 (Q9NYV4-1), experiment wp146",−1.018
Cn1c(=O)c(-c2c(Cl)cccc2Cl)cc2cnc(Nc3ccc(OCCNC(=O)CCCCCCNC(=O)COc4cccc5c4C(=O)N(C4CCC(=O)NC4=O)C5=O)cc3)nc21 (stereo not shown) [SB1.G.192.1],logFC TNK2 (Q07912-1),[1]; Experiment wp131,−1.488
same,logFC TNK2,[1]; experiment wp131,−1.488
Cc1ncsc1-c1ccc([C@H](C)NC(=O)[C@@H]2C[C@@H](O)CN2C(=O)[C@@H](NC(=O)CCOCCOCCN2CCN(c3ccc(Nc4ncc(Cl)c(Nc5ccccc5S(=O)(=O)C(C)C)n4)cc3)CC2)C(C)(C)C)cc1 [FMF.06.098.1],logFC,[3],−0.9016 and −1.137 and −0.9756
same,logFC CDK7,[3]; experiment wp108,−0.9016
same,logFC CDK7,[3]; experiment wp114,−1.137
same,logFC CDK7,[3]; experiment wp131,−0.9756
same,logFC TNK2 (Q07912-1),[1]; Experiment wp108,−0.5108
same,logFC TNK2 (Q07912-1),[1]; Experiment wp131,−0.5805
same,logFC TNK2,[1]; experiment wp108,−0.5108
same,logFC TNK2,[1]; experiment wp131,−0.5805
same,logFC CDK12,[6]; [8],−0.5732
same,logFC CDK12,[6]; [9],−0.5732
Cc1ccc(NC(=O)c2cccc(C(F)(F)F)c2)cc1N1Cc2cnc(Nc3ccc(N4CCN(CCCCC(=O)N[C@H](C(=O)N5C[C@H](O)C[C@H]5C(=O)N[C@@H](C)c5ccc(-c6scnc6C)cc5)C(C)(C)C)CC4)nc3)nc2N(C)C1=O [DB1113],logFC TNK2 (Q07912-1),[1]; Experiment wp168,−0.5351
same,logFC TNK2,[1]; experiment wp168,−0.5351
CC(C)S(=O)(=O)c1ccccc1Nc1nc(Nc2ccc(N3CCN(CCOCCOCCNC(=O)CNc4cccc5c4C(=O)N(C4CCC(=O)NC4=O)C5=O)CC3)cc2)ncc1Cl (stereo not shown) [TL12.186],logFC,[3],−0.7603 and −0.6447 and −0.7438
same,logFC CDK7,[3]; experiment wp016,−0.7603
same,logFC CDK7,[3]; experiment wp131,−0.6447
same,logFC CDK7,[3]; experiment wp137,−0.7438
same,logFC TNK2 (Q07912-1),[1]; Experiment wp131,−2.251
same,logFC TNK2 (Q07912-1),[1]; Experiment wp137,−1.575
same,logFC TNK2,[1]; experiment wp131,−2.251
same,logFC TNK2,[1]; experiment wp137,−1.575
same,logFC,[5],−3.722
same,logFC PTK2B,[5]; experiment wp016,−3.722
same,logFC CDK12,"[6]; Accession Q9NYV4-1, experiment wp016",−0.9185
same,logFC CDK12,[6]; [8],−1.402
same,logFC CDK12,"[6]; CDK12 (Q9NYV4-1), experiment wp016",−0.9185
same,logFC CDK12,[6]; [9],−1.402
same,logFC,[7],−0.5054
same,logFC STK17A,[7],−0.5054
